Experimental data from ChEMBL document CHEMBL1151298, “Plant anticancer agents XXIX. Cleomiscosin A from Simaba multiflora, Soulamea soulameoides, and Matayba arborescens” (1984).
≈ marks a conversion by molar mass, not a printed value.

What was measured:
[1] = test system: P388; assay: Cytotoxicity against mouse P388 cells; format: functional; details: read-out: ED50 (the source's name)
[2] = test system: KB; assay: Cytotoxicity against human KB cells; format: functional; details: read-out: ED50 (the source's name)

COc1cc([C@H]2Oc3c(OC)cc4ccc(=O)oc4c3O[C@@H]2CO)ccc1O [CLEOMISCOSIN A]
EC50 [1]: 3.8 µg/mL (≈ 9.84 µM) | EC50 [2]: 4.9 µg/mL (≈ 12.7 µM)
